Measurements published in patent US20120214734A1, “TREATMENT OF METABOLIC DISORDERS” (priority 2011, published 2012).

Legend:
Assay type in all cases: in vivo, human
[1] = Retrospective screen of chronic-care charts of obese hypertensive prisoners: random serum glucose, fasting lipid panel, blood pressure, weight; details: for dose-dependent effects: chart study, discussion
Text: One-hundred ten (110) patient charts in chronic care for hypertension at an 1800-capacity prison were initially screened. The data included age, weight, height, ethnicity, medications, lipid panel results for glucose, triglycerides and HDL-C, and blood pressure. All known or previously diagnosed diabetics were excluded from the study.
For cases involving ACE inhibitor plus simvastatin, further analysis included evaluation of total cholesterol and calculated low density lipoprotein (LDL-C).
In order to evaluate the effects of simvastatin without ACE inhibitor, 5 additional charts were screened (increasing n to 13).
The data were analyzed with respect to random serum lab values including random serum glucose and fasting lipid panel (which included total cholesterol, HDL-C, TG, and the calculated LDL-C). […] In addition, a few charts were evaluated for temporal changes spanning chronic care visits including weight, mean arterial blood pressure, medication adjustments, and random serum values of HDL-C, triglycerides, and glucose. A two-tailed student t test was used to test for significance between 2 sample means. Linear regression analysis with F statistic was used to obtain goodness of fit. Only coefficients of determination (r2) of 0.1 or greater were reported. […] The level of significance used was a probability (P)<0.05.

[2] = Example 2: ACE inhibitor given to non-obese person with low HDL-C; details: 10 mg/day, after 1 year; baseline 30 mg/dL; without concomitant weight loss or lifestyle changes
Protocol: A non-obese person presents for physical examination. […] The patient's parent is on anti-hypertension and anti-lipemic medications. The patient's older sibling is obese, hypertensive, and is being treated for coronary artery disease including recent placement of a cardiac stent for primary coronary artery blockage. […] Given the patients family history and low HDL-C […] risk of developing one or more metabolic conditions is considered high. They are prescribed Lisinopril, 10 mg/day.

[3] = Example 3: ACE inhibitor given to severely obese person with low HDL-C; details: 75 mg/day, after 1 year; baseline 25 mg/dL
Protocol: A person presents with normal blood pressure (125/85), normal fasting glucose (105 mg/dL), and normal triglyceride (145 mg/dL). They are severely obese with a BMI of 40. […] The patient is considered to be at significant risk of developing metabolic syndrome and/or cardiovascular disease later in life. They are advised of the risk and of the beneficial effects of losing weight. After 1 year the patient advises that despite strenuous effects to lose weight, including dieting and exercise, their bodyweight remains the same. They are prescribed Captopril, 75 mg/day.

[4] = FIG. 7, upper limit of normal daily dosages
[5] = one individual over 44 months (FIG. 3), captopril from 24 months, no anti-lipemic agent
[6] = FIG. 5A, controls without ACE inhibitor (with and without Hctz)

NCCCC[C@H](N[C@@H](CCc1ccccc1)C(=O)O)C(=O)N1CCC[C@H]1C(=O)O [lisinopril]
dose effects with glucose, triglyceride and HDL-C ([1]; 20 and 40 mg/day): occurred
HDL-C, dose effect ([1]; FIG. 6A): significant (P<0.05) dose-dependent increase
mean HDL-C [1, 4]: parallel increases
mean glucose [1, 4]: parallel decreases
mean triglyceride [1, 4]: parallel decreases
dose-dependent effects [1]: dose-dependent effects
HDL-C levels [2]: have risen

C[C@H](N[C@@H](CCc1ccccc1)C(=O)O)C(=O)N1CCC[C@H]1C(=O)O [enalaprilat]
potency at preventing insulin resistance ([1]; compared with captopril, at presumptive therapeutically equivalent antihypertensive dosages): less potent

CCOC(=O)[C@H](CCc1ccccc1)N[C@@H](C)C(=O)N1CCC[C@H]1C(=O)O [enalapril]
mean HDL-C [1, 4]: parallel increases
mean glucose [1, 4]: parallel decreases
mean triglyceride [1, 4]: parallel decreases

C[C@H](CS)C(=O)N1CCC[C@H]1C(=O)O [captopril]
triglyceride, dose effect ([1]; FIG. 6B): significant (P <0.02) dose-dependent decrease
mean HDL-C [1, 4]: parallel increases
mean glucose [1, 4]: parallel decreases
mean triglyceride [1, 4]: parallel decreases
dose-dependent effects [1]: dose-dependent effects
HDL-C ([1]; one individual followed over 44 months (FIG. 3), captopril introduced at 24 months, atenolol and hydrochlorothiazide discontinued, no anti-lipemic agent): increased
glucose [1, 5]: decreased
mean arterial blood pressure [1, 5]: decreased
serum triglyceride [1, 5]: decreased
HDL-C levels [3]: 30 mg/dL

NS(=O)(=O)c1cc2c(cc1Cl)NCNS2(=O)=O [Hctz, Hydrochlorothiazide]
mean glucose ([1]; FIG. 5A, controls without ACE inhibitor (stated for both controls, with and without Hctz)): > 110 mg/dL
mean HDL-C [1, 6]: < 42 mg/dL
mean triglyceride [1, 6]: > 159 mg/dL
random serum glucose with age ([1]; FIG. 5C, absence of ACE inhibitor): caused an age-related increase
mean glucose +/-SEM ([1]; presence of Hctz, n=15, no ACE inhibitor, no anti-lipemic): 105.8 ± 5.4 mg/dL
insulin-resistant state ([1]; with vs without Hctz, no ACE inhibitor): did not improve
